The NIST ThermoML archive (doi:10.1016/j.jct.2012.12.017)
± gives the expanded uncertainty stated by the source.

Columns and labels:
[1] = refractive index (Na D-line) (dimensionless); conditions: 298.15 K; 101.33 kPa; Liquid; Abbe refractometer
[2] = 298.15 K; 101.33 kPa; Liquid; Vibrating tube method

For `CCC[n+]1cccc(C)c1.O=S(=O)([N-]S(=O)(=O)C(F)(F)F)C(F)(F)F`, the refractive index [1] was 1.44485 ± 0.00033 and the mass density [2] was 1447.94 ± 0.62 kg/m3.

In the case of `CCCCCC` [hexane], the refractive index [1] is reported as 1.37241 ± 0.00033 and the mass density [2] is reported as 655.2 ± 0.25 kg/m3.

`CC[n+]1cccc(C)c1.O=S(=O)([N-]S(=O)(=O)C(F)(F)F)C(F)(F)F` gave a refractive index [1] of 1.44376 ± 0.00033 and a mass density [2] of 1488.5 ± 0.66 kg/m3.

`CCO` [ethanol] showed a refractive index [1] of 1.35936 ± 0.00033 and a mass density [2] of 785.2 ± 0.24 kg/m3.

For `CCCCCCC` [heptane], the refractive index [1] was 1.38529 ± 0.00033 and the mass density [2] was 679.57 ± 0.25 kg/m3.
